The source of these data is patent US20060058315A1, “2-Oxo-ethanesulfonamide derivates” (AstraZeneca AB, priority 2002, published 2006).

pIC50: −log10 of the molar value.

In the assay the target is T1, human 11βHSD1 (Homo sapiens, UniProt P28845).
T1 construct: a construct containing full-length human 11βHSD1 enzyme (in pCMVHyg); expressed in transfected cells
T1 sequence (P28845 whole entry): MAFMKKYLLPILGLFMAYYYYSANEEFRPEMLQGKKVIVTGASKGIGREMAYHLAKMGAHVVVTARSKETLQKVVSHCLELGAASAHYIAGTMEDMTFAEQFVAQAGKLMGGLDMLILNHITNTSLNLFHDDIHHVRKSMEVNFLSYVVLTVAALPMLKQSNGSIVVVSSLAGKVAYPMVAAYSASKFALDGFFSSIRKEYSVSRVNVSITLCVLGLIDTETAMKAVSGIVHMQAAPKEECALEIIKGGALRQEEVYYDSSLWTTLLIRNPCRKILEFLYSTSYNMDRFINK
Nature of the assay: HeLa GRE4-βGal/11βHSD1 cell reporter assay (β-galactosidase production). Type of assay: cell-based. As to conditions: HeLa GRE4-βGal/11βHSD1 cells, cortisone 1 μM, overnight incubation, absorbance at 570 nm. From the text: HeLa cells (human cervical carcinoma derived cells) were stably transfected with a construct containing four copies of the glucocorticoid response element (GRE) linked to a beta-galactosidase reporter gene (3 kb lac Z gene derived from pSV-B-galactosidase). These cells were then further stably transfected with a construct containing full-length human 11βHSD1 enzyme (in pCMVHyg) to create GRE4-βGal/11βHSD1 cells. The principal of the assay is as follows. Cortisone is freely taken up by the cells and is converted to cortisol by 11βHSD1 oxo-reductase activity and cortisol (but not cortisone) binds to and activates the glucocorticoid receptor. Activated glucocorticoid receptor then binds to the GRE and initiates transcription and translation of β-galactosidase. Enzyme activity can then be assayed with high sensitivity by colourimetric assay.
Cells were routinely cultured in DMIM (Invitrogen, Paisley, Renfrewshire, UK) containing 10% foetal calf serum (LabTech), 1% glutamine (Invitrogen), 1% penicillin & streptomycin (Invitrogen), 0.5 mg/ml G418 (Invitrogen) & 0.5 mg/ml hygromycin (Boehringer). Assay media was phenol red free-DMEM containing 1% glutamine, 1% penicillin & streptomycin.
Compounds (1 mM) to be tested were dissolved in dimethyl sulphoxide (DMSO) and serially diluted into assay media containing […]. […]
A cocktail (25 μl) consisting of 10× Z-buffer (600 mM Na2HPO4, 400 mM NaH2PO4.2H2O, 100 mM KCl, 10 mM MgSO4.7H2O, 500 mM, β-mercaptoethanol, pH 7.0), SDS (0.2%), chlorophenol red-β-D-galactopyranoside (5 mM, Roche Diagnostics) was added per well and plates incubated at 37° C. for 3-4 hours. β-Galactosidase activity was indicated by a yellow to red colour change (absorbance at 570 nm) measured using a Tecan Spectrafluor Ultra.
The calculation of median inhibitory concentration (IC50) values for the inhibitors was performed using Origin 6.0 (Microcal Software, Northampton M A USA). Dose response curves for each inhibitor were plotted as OD units at each inhibitor concentration with relation to a maximum signal (cortisone, no compound) and IC50 values calculated. […]
Molecule `CN(C)S(=O)(=O)CC(=O)c1ccccn1` [Example 2, (N,N-Dimethylsulphamoylmethyl)(pyrid-2-yl)ketone] showed a pIC50 of 7.14.
Next, `CN(C)S(=O)(=O)CC(=O)c1cnccn1` [Example 14]: 7.33.
Next, `CC(C)Oc1ccc(C(=O)CS(=O)(=O)N(C(C)C)C(C)C)cc1` [Example 75]: 7.22.
